One molecule from ChEMBL document CHEMBL5584341, “Discovery of Potent, Specific, and Orally Available NLRP3 Inflammasome Inhibitors Based on Pyridazine Scaffolds for the Treatment of Septic Shock and Peritonitis” (J Med Chem, 2024) can be followed below.

Experiment [1] is described as follows: Inhibition of IL-1beta release in PMA-differentiated/ LPS and nigericin stimulated human THP-1 cells at 0.5 uM pretreated with LPS for 3 hrs followed by incubation with compound for 40 mins and later stimulated with nigericin for 40 mins by ELISA. The format is functional. To be noted: THP-1, 1.333 h, time 80 min.
Experiment [2] can be described thus: Inhibition of IL-1beta release in PMA-differentiated/ LPS and nigericin stimulated human THP-1 cells at 0.1 uM pretreated with LPS for 3 hrs followed by incubation with compound for 40 mins and later stimulated with nigericin for 40 mins by ELISA. The class given is functional. To be noted: THP-1, 1.333 h, time 80 min.
Experiment [3] can be described thus: Inhibition of IL-1beta release in PMA-differentiated/ LPS and nigericin stimulated human THP-1 cells pretreated with LPS for 3 hrs followed by incubation with compound for 40 mins and later stimulated with nigericin for 40 mins by ELISA. The format is functional, cell-based.
The subject of a further experiment is Mus musculus. Briefly: Antiinflammatory activity against LPS induced septic shock in BALB/c mouse assessed as increase in survival rate at 25 mg/kg, ip pretreated for 1 hr followed by LPS stimulation and measured after 72 hrs. The format is functional. The settings on record: time 73 hrs.

In the case of `CC(C)(O)c1coc(S(=O)(=O)NC(=O)Nc2c3c(cc4c2CCC4)CCC3)c1`, the inhibition at 0.5 µM in experiment [1] was determined as 99.3%. The inhibition at 0.1 µM in experiment [2] is 99.2%. Moreover, the IC50 in experiment [3] turned out to be 8 nM. Also, the Activity in the experiment with Mus musculus is on record as 60%.
